# Read-outs that look alike come from different tables or passages of the source. Bridge positions count the residues as written; N and C are the ends. Peptide text beside a SMILES is read from it.
# Columns and labels:
# [1] = system: lung cancer cell line (A549); format: cell-based, human; details: for IC50 / killing effects on lung cancer cell A549 (in words): 24 h; for killing effects on lung cancer cell A549 (in words): MTT, anticancer activity when IC50 less than 50 μM; for selective killing effect on lung cancer A549 cells relative to 293T cells (in words): A549 versus 293T, MTT IC50
# Description: (§1) Five peptides were randomly selected from the candidate ACPs and synthesized by Changzhou Kanglong Biotech Ltd (Changzhou, China). using 9-fuorenylmethoxy carbonyl (FMOC) solid phase synthesis technology. The synthetic peptide was identified by mass spectrometry (MS), and the purity >95% by high performance liquid chromatography (HPLC). Human breast cancer cell line (MCF7), lung cancer cell line (A549), cervical cancer cell line (HeLa), colorectal adenocarcinoma cell line (LoVo) and human embryonic kidney cells (293T) were preserved in our laboratory. At 37 °C under 5/95% CO2/air condition, all cell lines were cultured in Dulbecco’s modified Eagle medium (DMEM) supplemented with 10% (v/v) fetal bovine serum (FBS, Gibco, Carlsbad, CA, USA) and 1% (v/v) penicillin/streptomycin (Sangon Biotech, Shanghai, China).
# (§2) Human tumor cell lines MCF7, A549, HeLa and LoVo were used as experimental materials to detect the anticancer activity of peptides by MTT assay. In addition, human embryonic kidney cells 293T were also included in the experiment to examine the safety of the peptide against non-cancerous cells. […] Untreated cells as negative control group incubated with corresponding medium for 24 h. Subsequently, 10 uL, 5 mg/mL MTT (Sangon Biotech, Shanghai, China) solution was added to each well and incubated for 4 h at 37 °C. After the medium was discarded, 150 μL DMSO was added to each well for 10 min to dissolve formazan crystals. Absorbance was measured at 570 and 630 nm using a multiwall plate reader and the inhibition rate was expressed as the mean ± standard deviation (SD) of the triplicate data.
# [2] = system: cervical cancer cell line (HeLa); format: cell-based, human; details: 24 h
# Description: as §1, §2
# [3] = system: colorectal adenocarcinoma cell line (LoVo); format: cell-based, human; details: 24 h
# Description: as §1, §2
# [4] = system: Human breast cancer cell line (MCF7); format: cell-based; details: 24 h
# Description: as §1, §2
# [5] = system: human embryonic kidney cells (293T); test: MTT assay on non-cancerous cells, 293T; format: cell-based; details: 24 h; for toxicity to 293T cells (in words): low toxicity when the IC50 value exceeded 50 μM, MTT
# Description: as §1, §2
# [6] = system: many types of cells, including non-cancer cells; details: toxic peptides dataset TD2; class label 1 (toxic, positive set) or 0 (non-toxic AMP, negative set); ref SATPdb; cited from earlier work
# erythrocytes = details: ref Hemolytik/SATPdb, cited from earlier work
# Description: Supplement ijms-22-05630-s001.zip/Hemloytic Peptides(seguence).xlsx, sheet "HD1" | column: Activity || Supplement ijms-22-05630-s001.zip/Hemloytic Peptides(seguence).xlsx, sheet "HD2" | column: Activity || Supplement ijms-22-05630-s001.zip/Hemloytic Peptides(seguence).xlsx, sheet "HD3" | column: Activity
# cancer cell lines = system: cancer cell lines; design: method as in 6 sources, ref CancerPPD [45] and SATPdb ||| ref CancerPPD/SATPdb ||| ref CancerPPD, SATPdb, Swissprot (PDB) ||| ref CancerPPD/SATPdb/Swissprot(PDB) ||| ref CancerPPD / SATPdb ||| ...; details: label 1 = ACP, 0 = non-ACP, cited from earlier work
# Description: Supplement ijms-22-05630-s001.zip/ACPs(seguence).xlsx, sheet "D1" | column: Activity || Supplement ijms-22-05630-s001.zip/ACPs(seguence).xlsx, sheet "D2" | column: Activity || Supplement ijms-22-05630-s001.zip/ACPs(seguence).xlsx, sheet "D3" | column: Activity || (+ 2 further places)
# [7] = system: 2% sheep red blood cells (SRBC); test: Hemolysis assay; format: cell-based; details: Triton X-100 0.1% (w/v), 2% SRBC, 37 °C, 1 h, absorbance 540 nm; printed once per peptide line
# Description: The 2% sheep red blood cells (SRBC) were purchased from Nanjing Senbeijia Biological Technology Co., Ltd (Nangjing, China). A total of 4 mL of 2% SRBC was taken, rinsed twice with 4 mL of PBS by centrifugation for 5 min at 3000 rpm and the precipitates were resuspended in 4 mL of PBS. We added 100 μL of 2% SRBC to each well of the 96-well plate and then added 100 μL peptide solutions of different concentrations (2, 4, 8, 16, 32, 64, 128 and 256 μM) in triplicate at 37 °C for 1 h. 100 μL of PBS buffer and 100 uL of Triton X-100 0.1% (w/v) were mixed with SRBC as negative and positive controls, respectively. All samples were centrifuged at 3000 rpm for 5 min, 100 μL supernatant was collected and transferred to a new 96-well plate, and its absorbance was measured at 540 nm. The calculation formula of hemolysis rate is as follows. (5) % Hemolysis=absorbancesample-absorbancenegative/absorbancepositive-absorbancenegative×100
Molecule,IC50 [1] [µM],killing effects on lung cancer cell A549 (in words) [1],IC50 [2] [µM],IC50 [3] [µM],IC50 [4] [µM],IC50 [5] [µM],toxicity to 293T cells (in words) [5],selective killing effect on lung cancer A549 cells relative to 293T cells (in words) [1],Activity [6],"Activity (erythrocytes; Hemolytic peptides dataset HD2, label 1 = hemolytic, 0 = non-hemolytic)","Activity (erythrocytes; hemolytic peptides dataset HD3, 1 = hemolytic (positive set), 0 = non-hemolytic (negative set), labels taken from databases)","Activity (cancer cell lines; ACPs dataset D3 (sheet ""D3""), ref CancerPPD/SATPdb)","Activity (cancer cell lines; ACPs dataset D4 (sheet ""D4""), ref CancerPPD / SATPdb)","Activity (cancer cell lines; ACPs dataset D5, sheet ""D5"", ref CancerPPD [45] and SATPdb)","Hemolytic effect on 2% sheep erythrocytes, Positive Control (Triton X-100 (0.1%)) [7]"
CC[C@H](C)[C@H](NC(=O)CN)C(=O)N[C@@H](Cc1ccccc1)C(=O)N[C@@H](CC(=O)O)C(=O)N[C@H](C(=O)N[C@H](C(=O)N[C@@H](CCCCN)C(=O)NCC(=O)N[C@H](C(=O)N[C@@H](CC(C)C)C(=O)N[C@@H](CCCCN)C(=O)NCC(=O)N[C@H](C(=O)NCC(=O)N[C@@H](CCCCN)C(=O)N[C@@H](CC(N)=O)C(=O)N[C@H](C(=O)N[C@@H](C)C(=O)NCC(=O)N[C@@H](CO)C(=O)N[C@@H](CC(C)C)C(=O)N[C@@H](CC(C)C)C(=O)N[C@@H](CCC(=O)O)C(=O)N[C@@H](CCC(N)=O)C(=O)N[C@@H](CC(C)C)C(=O)N[C@@H](CCCCN)C(=O)N[C@H]1CSSC[C@@H](C(=O)O)NC(=O)CNC(=O)CNC(=O)[C@H](CO)NC(=O)[C@H](CC(C)C)NC(=O)[C@H](CCCCN)NC1=O)C(C)C)C(C)C)C(C)C)C(C)C)C(C)C [Brevinin-2DYd] (H-GIFDVVKGVLKGVGKNVAGSLLEQLKCKLSGGC-OH; disulfide 27-33; N-terminus and C-terminus assumed),2.98,effective killing effects,19.7,8.05,25.7,5.83,highest toxicity,,,,,,,,
CC(C)C[C@H](NC(=O)CN)C(=O)N[C@@H](Cc1ccccc1)C(=O)N[C@@H](CC(=O)O)C(=O)N[C@H](C(=O)N[C@H](C(=O)N[C@@H](CCCCN)C(=O)NCC(=O)N[C@H](C(=O)N[C@@H](CC(C)C)C(=O)N[C@@H](CCCCN)C(=O)NCC(=O)N[C@@H](C)C(=O)NCC(=O)N[C@@H](CCCCN)C(=O)N[C@@H](CC(N)=O)C(=O)N[C@H](C(=O)N[C@@H](C)C(=O)NCC(=O)N[C@@H](CO)C(=O)N[C@@H](CC(C)C)C(=O)N[C@@H](CC(C)C)C(=O)N[C@@H](CCC(=O)O)C(=O)N[C@@H](CCC(N)=O)C(=O)N[C@@H](CC(C)C)C(=O)N[C@@H](CCCCN)C(=O)N[C@H]1CSSC[C@@H](C(=O)O)NC(=O)CNC(=O)CNC(=O)[C@H](CO)NC(=O)[C@H](CC(C)C)NC(=O)[C@H](CCCCN)NC1=O)C(C)C)C(C)C)C(C)C)C(C)C [Brevinin-2DYb] (H-GLFDVVKGVLKGAGKNVAGSLLEQLKCKLSGGC-OH; disulfide 27-33; N-terminus and C-terminus assumed),24,effective killing effects,23.3,35.1,37.8,50.7,low toxicity,selective killing effect,,,,,,,
CC[C@H](C)[C@@H]1NC(=O)[C@H](CCCCN)NC(=O)[C@@H](NC(=O)[C@H](CCCCN)NC(=O)[C@H](CC(C)C)NC(=O)CNC(=O)[C@H](CCC(=O)O)NC(=O)[C@H](CC(C)C)NC(=O)[C@H](CCCCN)NC(=O)CNC(=O)[C@H](C)NC(=O)[C@@H](NC(=O)[C@H](CC(=O)O)NC(=O)[C@H](CCCCN)NC(=O)[C@H](C)NC(=O)[C@H](C)NC(=O)CNC(=O)[C@H](CCCCN)NC(=O)[C@H](CC(C)C)NC(=O)[C@@H](NC(=O)[C@H](CC(=O)O)NC(=O)[C@H](CC(C)C)NC(=O)[C@H](Cc2ccccc2)NC(=O)[C@H](CC(C)C)NC(=O)CN)[C@@H](C)O)C(C)C)CSSC[C@@H](C(=O)N[C@@H](CCCCN)C(=O)N[C@@H](CC(C)C)C(=O)N2CCC[C@H]2C(=O)O)NC(=O)CNC(=O)[C@H]([C@@H](C)O)NC1=O [RANATUERIN2] (H-GLFLDTLKGAAKDVAGKLEGLKCKITGCKLP-OH; disulfide 23-28; N-terminus and C-terminus assumed),> 128,,> 128,,> 128,> 128,low toxicity,,,,,,,,
CC[C@H](C)[C@H](NC(=O)CN)C(=O)N[C@@H](CC(C)C)C(=O)N[C@@H](CO)C(=O)N[C@@H](CO)C(=O)N[C@H](C(=O)N[C@@H](CCCCN)C(=O)NCC(=O)N[C@H](C(=O)N[C@@H](C)C(=O)N[C@@H](CCCCN)C(=O)NCC(=O)N[C@H](C(=O)N[C@@H](C)C(=O)N[C@@H](CCCCN)C(=O)N[C@@H](CC(N)=O)C(=O)N[C@H](C(=O)N[C@@H](C)C(=O)N[C@@H](C)C(=O)N[C@@H](CCC(N)=O)C(=O)N[C@@H](CC(C)C)C(=O)N[C@@H](CC(C)C)C(=O)N[C@@H](CC(=O)O)C(=O)N[C@H](C(=O)N[C@@H](CC(C)C)C(=O)N[C@@H](CCCCN)C(=O)N[C@H]1CSSC[C@@H](C(=O)O)NC(=O)CNC(=O)[C@H]([C@@H](C)O)NC(=O)[C@H]([C@@H](C)CC)NC(=O)[C@H](CCCCN)NC1=O)[C@@H](C)O)C(C)C)C(C)C)C(C)C)[C@@H](C)CC [RANATUERIN-2Lb] (H-GILSSIKGVAKGVAKNVAAQLLDTLKCKITGC-OH; disulfide 27-32; N-terminus and C-terminus assumed),15.3,effective killing effects,37.2,59.8,45.2,63.2,low toxicity,selective killing effect,,,,,,,
FVGAIAAALPHVISAIKNAL [satpdb12079],,,,,,,,,1,1,1,0,0,0,
Triton X-100 [reference compound],,,,,,,,,,,,,,,+ (The “+” symbol indicates that the hemolysis rate exceeds 10% when peptides concentration reaches 100 μM)

# Source: PMC8198792, “Prediction of Anticancer Peptides with High Efficacy and Low Toxicity by Hybrid Model Based on 3D Structure of Peptides” (International Journal of Molecular Sciences, 2021)
